From ChEMBL document CHEMBL4028874, “Methodology for Monobactam Diversification: Syntheses and Studies of 4-Thiomethyl Substituted β-Lactams with Activity against Gram-Negative Bacteria, Including Carbapenemase Producing Acinetobacter baumannii” (2017)
≈ marks a conversion by molar mass, not a printed value. Calls of active or inactive are those of the source. No cut-off for these calls is given here.

Columns and labels:
Acinetobacter baumannii [1] = assay: Antibacterial activity against Acinetobacter baumannii ATCC BAA 1793 after 18 hrs by broth microdilution method; type: functional
Pseudomonas aeruginosa [2] = assay: Antibacterial activity against Pseudomonas aeruginosa ARC 3502 after 18 hrs by broth microdilution method; type: functional; details: ARC 3502, 18 h
Pseudomonas aeruginosa [3] = assay: Antibacterial activity against Pseudomonas aeruginosa ARC 3506 after 18 hrs by broth microdilution method; type: functional; details: ARC 3506, 18 h
Acinetobacter baumannii [4] = assay: Antibacterial activity against cephalosporinase producing Acinetobacter baumannii ATCC 17978-PNT-320 after 18 hrs by broth microdilution method; type: functional
Escherichia coli = assay: Antibacterial activity against Escherichia coli DC0 after 18 hrs by broth microdilution method; type: functional; details: DC0, 18 h
Proteus mirabilis = assay: Antibacterial activity against Proteus mirabilis X235 after 18 hrs by broth microdilution method; type: functional; details: X235, 18 h
Pseudomonas aeruginosa [5] = assay: Antibacterial activity against Pseudomonas aeruginosa ARC 3502 after 18 hrs in presence of tazobactam by broth microdilution method; type: functional; details: ARC 3502, 18 h
Acinetobacter baumannii [6] = assay: Antibacterial activity against Acinetobacter baumannii ATCC BAA 1800 after 18 hrs by broth microdilution method; type: functional; details: ATCC BAA 1800, 18 h
Acinetobacter baumannii [7] = assay: Antibacterial activity against clinical isolates of Acinetobacter baumannii ARC 5079 after 18 hrs by broth microdilution method; type: functional
Staphylococcus aureus = assay: Antibacterial activity against Staphylococcus aureus SG 511 after 18 hrs by broth microdilution method; type: functional; details: SG 511, 18 h
Klebsiella aerogenes = assay: Antibacterial activity against Enterobacter aerogenes X816 after 18 hrs by broth microdilution method; type: functional; details: X816, 18 h
Acinetobacter baumannii [8] = assay: Antibacterial activity against Acinetobacter baumannii ATCC BAA 1797 after 18 hrs by broth microdilution method; type: functional; details: ATCC BAA 1797, 18 h
Pseudomonas aeruginosa [9] = assay: Antibacterial activity against Pseudomonas aeruginosa ARC 3506 after 18 hrs in presence of tazobactam by broth microdilution method; type: functional; details: ARC 3506, 18 h
Burkholderia dolosa = assay: Antibacterial activity against Burkholderia dolosa AU0018 after 18 hrs by broth microdilution method; type: functional; details: AU0018, 18 h
Pseudomonas aeruginosa [10] = assay: Antibacterial activity against clinical isolates of Pseudomonas aeruginosa ISR-14-004 after 18 hrs in presence of tazobactam by broth microdilution method; type: functional; details: ISR-14-004, 18 h
Salmonella typhimurium = assay: Antibacterial activity against Salmonella typhimurium ATCC 13311 after 18 hrs by broth microdilution method; type: functional, Salmonella enterica subsp. enterica serovar Typhimurium; details: Salmonella enterica, ATCC 13311, 18 h
Acinetobacter baumannii [11] = assay: Antibacterial activity against clinical isolates of Acinetobacter baumannii ISR14-005 after 18 hrs in presence of tazobactam by broth microdilution method; type: functional; details: ISR14-005, 18 h
Acinetobacter baumannii [12] = assay: Antibacterial activity against Acinetobacter baumannii ATCC 17961 after 18 hrs by broth microdilution method; type: functional; details: ATCC 17961, 18 h
Pseudomonas aeruginosa [13] = assay: Antibacterial activity against Pseudomonas aeruginosa KW799/wt after 18 hrs by broth microdilution method; type: functional
Citrobacter freundii = assay: Antibacterial activity against Citrobacter freundii ATCC 29063 after 18 hrs by broth microdilution method; type: functional; details: ATCC 29063, 18 h
Pseudomonas aeruginosa [14] = assay: Antibacterial activity against clinical isolates of Pseudomonas aeruginosa ISR-14-003 after 18 hrs by broth microdilution method; type: functional
Acinetobacter baumannii [15] = assay: Antibacterial activity against carbapenemase producing Acinetobacter baumannii ATCC 17978-PNT-165 after 18 hrs by broth microdilution method; type: functional; details: ATCC 17978-PNT-165, 18 h
Pseudomonas aeruginosa [16] = assay: Antibacterial activity against Pseudomonas aeruginosa 01 after 18 hrs by broth microdilution method; type: functional; details: Pseudomonas aeruginosa, 01, 18 h
Pseudomonas aeruginosa [17] = assay: Antibacterial activity against clinical isolates of Pseudomonas aeruginosa ISR-14-004 after 18 hrs by broth microdilution method; type: functional
Pseudomonas aeruginosa [18] = assay: Antibacterial activity against clinical isolates of Pseudomonas aeruginosa ISR-14-003 after 18 hrs in presence of tazobactam by broth microdilution method; type: functional; details: ISR-14-003, 18 h
Acinetobacter baumannii [19] = assay: Antibacterial activity against clinical isolates of Acinetobacter baumannii ARC 5079 in presence of tazobactam after 18 hrs by broth microdilution method; type: functional; details: ARC 5079, 18 h
Acinetobacter baumannii [20] = assay: Antibacterial activity against clinical isolates of Acinetobacter baumannii ISR14-005 after 18 hrs by broth microdilution method; type: functional
Acinetobacter baumannii [21] = assay: Antibacterial activity against Acinetobacter baumannii ATCC BAA 1800 at 10 ug/ml after 18 hrs by broth microdilution method; type: functional
Acinetobacter baumannii [22] = assay: Antibacterial activity against Acinetobacter baumannii ATCC BAA 1793 at 10 ug/ml after 18 hrs by broth microdilution method; type: functional

Compound | MIC (Acinetobacter baumannii [1]; ATCC BAA 1793, 18 h) [µM] | MIC (Pseudomonas aeruginosa [2]) | MIC (Pseudomonas aeruginosa [3]) | MIC (Acinetobacter baumannii [4]; ATCC 17978-PNT-320, 18 h) | MIC (Escherichia coli) [µM] | MIC (Proteus mirabilis) [µM] | MIC (Acinetobacter baumannii [6]) [µM] | MIC (Acinetobacter baumannii [7]; ARC 5079, 18 h) | MIC (Staphylococcus aureus) [µM] | MIC (Klebsiella aerogenes) [µM] | MIC (Acinetobacter baumannii [8]) [µM] | MIC (Burkholderia dolosa) [µM] | MIC (Salmonella typhimurium) [µM] | MIC (Acinetobacter baumannii [12]) [µM] | MIC (Pseudomonas aeruginosa [13]) [µM] | MIC (Citrobacter freundii) [µM] | MIC (Pseudomonas aeruginosa [14]; ISR-14-003, 18 h) | MIC (Acinetobacter baumannii [15]) [µM] | MIC (Pseudomonas aeruginosa [17]; ISR-14-004, 18 h) | MIC (Acinetobacter baumannii [20]; ISR14-005, 18 h) | also measured
CC(C)(O/N=C(\C(=O)N[C@@H]1C(=O)N(S(=O)(=O)O)[C@H]1CSCCNC(=O)CN(CCCCNC(=O)c1cccc(O)c1O)C(=O)c1cccc(O)c1O)c1cnc(N)s1)C(=O)O | 0.1 to 0.4 (≈ 0.0911 to 0.364 µg/mL) | > 50 µM | > 50 µM | 0.4 µM | < 0.025 | < 0.025 | 0.1 to 0.4 (≈ 0.0911 to 0.364 µg/mL) | 1.6 to 25 µM | > 50 | 0.075 (≈ 0.0683 µg/mL) | 0.4 (≈ 0.364 µg/mL) | > 50 | 0.025 (≈ 0.0228 µg/mL) | 0.2 (≈ 0.182 µg/mL) | 0.4 (≈ 0.364 µg/mL) | 0.05 (≈ 0.0455 µg/mL) | 1.6 µM | 0.4 (≈ 0.364 µg/mL) | 6 µM | > 50 µM | MIC (Pseudomonas aeruginosa [5]): 1.6 µM; MIC (Pseudomonas aeruginosa [9]): 1.6 to 25 µM; MIC (Pseudomonas aeruginosa [10]): 3 µM; MIC (Acinetobacter baumannii [11]): 25 µM; MIC (Pseudomonas aeruginosa [16]): 0.4 µM (≈ 0.364 µg/mL); MIC (Pseudomonas aeruginosa [18]): 1.6 µM; MIC (Acinetobacter baumannii [19]): 1.6 to 50 µM
CO/N=C(\C(=O)N[C@@H]1C(=O)N(S(=O)(=O)O)[C@H]1CSCCN)c1cnc(N)s1 |  | > 50 µM | > 50 µM |  | 25 (≈ 11 µg/mL) | 12.5 (≈ 5.48 µg/mL) |  |  | > 50 | 0.2 (≈ 0.0877 µg/mL) | > 50 |  | 12.5 (≈ 5.48 µg/mL) | 50 (≈ 21.9 µg/mL) | > 50 | 12.5 (≈ 5.48 µg/mL) | > 50 µM | 50 (≈ 21.9 µg/mL) | > 50 µM | > 50 µM | MIC (Pseudomonas aeruginosa [16]): > 50 µM
POLYMYXIN B |  |  |  |  |  |  |  |  |  |  |  |  |  |  |  |  |  |  |  |  | MIC (Acinetobacter baumannii [1]): < 0.025 µM; MIC (Acinetobacter baumannii [4]): < 0.025 µM; MIC (Acinetobacter baumannii [7]): < 0.1 µM; MIC (Pseudomonas aeruginosa [14]): 0.1 µM; MIC (Pseudomonas aeruginosa [17]): 0.05 µM; MIC (Acinetobacter baumannii [20]): < 0.025 µM
CC(C)(O/N=C(\C(=O)N[C@@H]1C(=O)N(S(=O)(=O)O)[C@H]1CSCCN)c1cnc(N)s1)C(=O)O | ≥ 50 | ≥ 50 µM | > 50 µM | > 50 µM | 6 (≈ 3.06 µg/mL) | 3 (≈ 1.53 µg/mL) | ≥ 50 | > 50 µM | > 50 | 9.4 (≈ 4.8 µg/mL) | 50 (≈ 25.5 µg/mL) | > 50 | 4.5 (≈ 2.3 µg/mL) | > 50 | > 50 | 3 (≈ 1.53 µg/mL) | > 50 µM | 50 (≈ 25.5 µg/mL) | > 50 µM | > 50 µM | MIC (Pseudomonas aeruginosa [9]): > 50 µM; MIC (Pseudomonas aeruginosa [16]): > 50 µM; MIC (Acinetobacter baumannii [19]): > 50 µM
COC(=O)CSC[C@H]1[C@H](NC(=O)Cc2ccccc2)C(=O)N1S(=O)(=O)O | > 50 | > 50 µM | > 50 µM | > 50 µM | > 50 | > 50 | > 50 | > 50 µM | > 50 | > 50 | > 50 | > 50 | > 50 | > 50 | > 50 | > 50 | > 50 µM | > 50 | > 50 µM | > 50 µM | MIC (Pseudomonas aeruginosa [16]): > 50 µM
C[C@H]1[C@H](NC(=O)/C(=N\OC(C)(C)C(=O)O)c2csc(N)n2)C(=O)N1S(=O)(=O)O [AZTREONAM] | 12.5 to 25 (≈ 5.44 to 10.9 µg/mL) |  | 12.5 to 50 µM |  | 0.1 (≈ 0.0435 µg/mL) | 0.05 (≈ 0.0218 µg/mL) | 12.5 to 25 (≈ 5.44 to 10.9 µg/mL) |  | > 50 | 0.2 (≈ 0.0871 µg/mL) |  | > 50 | 0.1 (≈ 0.0435 µg/mL) |  | 1.6 (≈ 0.697 µg/mL) | 0.1 (≈ 0.0435 µg/mL) |  | 12.5 (≈ 5.44 µg/mL) |  |  | 
C[C@]1(Cn2ccnn2)[C@H](C(=O)O)N2C(=O)C[C@H]2S1(=O)=O [TAZOBACTAM] |  | > 10 µg/mL | > 10 µg/mL | < 10 µg/mL |  |  |  | > 10 µg/mL |  |  |  | > 50 |  |  |  |  | > 20 µg/mL |  | > 20 µg/mL | > 20 µg/mL | Activity (Acinetobacter baumannii [21]): inactive; Activity (Acinetobacter baumannii [22]): inactive
